± gives the expanded uncertainty stated by the source.
Conditions: Crystal; DTA

Row | Structure (SMILES) | Normal melting temperature [°C]
1 | [F-].[Rb+] [rubidium fluoride (RbF)] | 790.1 ± 1
2 | [I-].[Rb+] [rubidium iodide (RbI)] | 650.00 ± 1

Reference: the NIST ThermoML archive (doi:10.1016/j.tca.2008.03.014)
